# Where “and” joins values, the source holds several entries; their conditions need not be identical. Equal values may be shown once. Read-outs that look alike come from different tables or passages of the source.
# Tests used:
# HCT116 p97WT = assay: HCT116 proliferation assay (CellTiter Glo); type: cell-based; design: key to cellular viability of HCT116: % of DMSO control viability
# Method: (§1) Anti-proliferative activity was measured using CellTiter Glo® Luminescent Cell Viability Assay (Promega G7572) according to the manufacturer’s procedure as described. RMPI1640 containing 5% FBS and 1% penicillin-streptomycin was used as a cell viability medium. A standard curve of HCT116 was generated for finding the linear relationship between the relative luminescence unit and the number of viable cells. […] 24 h after seeding, 8 μL of media containing 5% DMSO was added to each well, and the plate was incubated for an additional 48 h. To test the anti-proliferative activity of p97 inhibitors, we seeded HCT116 at 750 cells per well according to the linear range. […] After 48 h of treatment, cell viability was measured by adding CellTiter Glo reagent and reading the signal with a BioTek Synergy Neo plate reader (Agilent, Santa Clara, CA). The IC50 values were calculated from four replicates using the percentage of growth of treated cells versus the DMSO control. The results were analyzed using GraphPad Prism 7.0 (GraphPad, Boston, MA).
# p97^K512N = biological target: T1, p97^K512N (Homo sapiens, UniProt P55072, K512N); assay: p97 ATPase activity (Biomol Green), K512N mutant; type: biochemical; settings: for IC50: 200 μM ATP, six replicates; for Ratio of IC50 values for mutants to IC50 values for wild-type p97, K512N: K512N/WT
# T1 construct: made in house
# T1 sequence (P55072 whole entry K512N): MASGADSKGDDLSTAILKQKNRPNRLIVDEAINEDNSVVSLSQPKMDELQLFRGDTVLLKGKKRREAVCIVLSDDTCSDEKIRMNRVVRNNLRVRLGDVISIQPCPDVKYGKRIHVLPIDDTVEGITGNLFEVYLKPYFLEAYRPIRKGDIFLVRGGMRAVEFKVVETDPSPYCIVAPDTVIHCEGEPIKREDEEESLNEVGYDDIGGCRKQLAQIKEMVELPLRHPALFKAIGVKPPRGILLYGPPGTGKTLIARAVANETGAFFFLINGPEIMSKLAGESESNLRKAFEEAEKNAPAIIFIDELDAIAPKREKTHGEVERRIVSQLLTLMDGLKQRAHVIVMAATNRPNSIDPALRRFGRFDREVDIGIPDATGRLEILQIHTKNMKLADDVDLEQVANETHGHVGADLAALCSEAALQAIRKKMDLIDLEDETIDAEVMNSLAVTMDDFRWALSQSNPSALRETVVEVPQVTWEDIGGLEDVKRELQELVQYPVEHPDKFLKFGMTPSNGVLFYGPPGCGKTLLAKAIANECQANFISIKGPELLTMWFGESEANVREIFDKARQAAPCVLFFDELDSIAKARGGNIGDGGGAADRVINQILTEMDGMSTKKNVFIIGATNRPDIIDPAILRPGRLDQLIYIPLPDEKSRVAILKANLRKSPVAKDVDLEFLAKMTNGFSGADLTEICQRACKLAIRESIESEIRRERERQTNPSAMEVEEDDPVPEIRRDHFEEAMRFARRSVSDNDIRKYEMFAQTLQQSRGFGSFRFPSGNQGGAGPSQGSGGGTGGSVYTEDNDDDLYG
# Method: (§2) Results were calculated from 6 replicates using GraphPad Prism 7.0 (GraphPad Software, Boston, MA).
# [1] = test system: Ub^G76V-GFP/ODD-Luc HeLa cells; assay: Cellular Ub^G76V-GFP accumulation assay; type: cell-based; settings: Homo sapiens, HeLa; Table S3; four replicates; read-out: UbG76V-GFP EC50
# Method: ImageXpress high-content confocal microscope (Molecular Devices, LLC., San Jose, CA) was used to image cells at GFP channel. The percentage of Ub^G76V-GFP accumulation (%Acc) is calculated using the following formula: […]
# The IC50 values were calculated by fitting the %Acc from four replicates with various concentrations of compounds using GraphPad Prism 7.0 (GraphPad, Boston, MA).
# p97^P510S = biological target: T2, p97^P510S (Homo sapiens, UniProt P55072, P510S); assay: p97 ATPase activity (Biomol Green), P510S mutant; type: biochemical; settings: for IC50: 200 μM ATP, six replicates; for Ratio of IC50 values for mutants to IC50 values for wild-type p97, P510S: P510S/WT
# T2 construct: made in house
# T2 sequence (P55072 whole entry P510S): as the sequence (P55072 whole entry K512N) above, with P510S, N512K counted along it
# Method: as §2
# p97^N616F = biological target: T3, p97^N616F (Homo sapiens, UniProt P55072, N616F); assay: p97 ATPase activity (Biomol Green), N616F mutant; type: biochemical; settings: for IC50: 200 μM ATP, six replicates; for Ratio of IC50 values for mutants to IC50 values for wild-type p97, N616F: N616F/WT
# T3 construct: made in house
# T3 sequence (P55072 whole entry N616F): as the sequence (P55072 whole entry K512N) above, with N512K, N616F counted along it
# Method: as §2
# p97^R155H = biological target: T4, p97^R155H (Homo sapiens, UniProt P55072, R155H); assay: p97 ATPase activity (Biomol Green), R155H mutant; type: biochemical; settings: for IC50: 200 μM ATP, six replicates; for Ratio of IC50 values for mutants to IC50 values for wild-type p97, R155H: R155H/WT
# T4 construct: enabling us to acquire high-resolution biomolecular structures of full-length p97; made in house
# T4 sequence (P55072 whole entry R155H): as the sequence (P55072 whole entry K512N) above, with R155H, N512K counted along it
# Method: as §2
# wild-type p97 (p97^WT) = biological target: T5, wild-type p97 (p97^WT) (Homo sapiens, UniProt P55072); assay: p97 ATPase activity (Biomol Green), wild-type p97; type: biochemical; settings: for IC50: 200 μM ATP, six replicates; for Ratio of IC50 values for mutants to IC50 values for wild-type p97, WT: WT/WT reference
# T5 construct: made in house
# T5 sequence (P55072 whole entry): as the sequence (P55072 whole entry K512N) above, with N512K counted along it
# Method: as §2
# p97^F618S = biological target: T6, p97^F618S (Homo sapiens, UniProt P55072, F618S); assay: p97 ATPase activity (Biomol Green), F618S mutant; type: biochemical; settings: for IC50: 200 μM ATP, six replicates; for Ratio of IC50 values for mutants to IC50 values for wild-type p97, F618S: F618S/WT
# T6 construct: made in house
# T6 sequence (P55072 whole entry F618S): as the sequence (P55072 whole entry K512N) above, with N512K, F618S counted along it
# Method: as §2
# HCT116 p97P510S = assay: Cellular viability, resistant HCT116 p97P510S; type: cell-based; settings: Homo sapiens, HCT-116, Table S3, four replicates
# Method: (§3) Drug-resistant HCT116 cell lines were derived using the method previously described and with certain modifications[70],[99]. […] Drug-resistant clones were transferred into a new plate for passaging, and subsequently used to study drug resistance and identify the p97 mutations.
# as §1
# HCT116 p97F618S = assay: Cellular viability, resistant HCT116 p97F618S; type: cell-based; settings: Homo sapiens, HCT-116, Table S3, four replicates
# Method: as §3, §1
# HCT116 p97K512N = assay: Cellular viability, resistant HCT116 p97K512N; type: cell-based; settings: Homo sapiens, HCT-116, Table S3, four replicates
# Method: as §3, §1
# [2] = Homo sapiens, HCT-116, Table S3, cellular viability, four replicates, read-out: IC50 HCT116 p97WT
# [3] = Homo sapiens, HCT-116, Table S6, 48-hour treatment, read-out: Cell viability of HCT116 IC50
Structure (SMILES),IC50 (HCT116 p97WT; [2]) [nM],"increase of IC50 versus p97^WT, K512N (p97^K512N) [fold]",IC50 (p97^K512N) [nM],"Ratio of IC50 values for mutants to IC50 values for wild-type p97, K512N (p97^K512N)",EC50 [1] [nM],"increase of IC50 versus p97^WT, P510S (p97^P510S)",IC50 (p97^P510S) [nM],"Ratio of IC50 values for mutants to IC50 values for wild-type p97, P510S (p97^P510S)","increase of IC50 versus p97^WT, N616F (p97^N616F)",IC50 (p97^N616F) [nM],"Ratio of IC50 values for mutants to IC50 values for wild-type p97, N616F (p97^N616F)",IC50 (p97^R155H) [nM],"Ratio of IC50 values for mutants to IC50 values for wild-type p97, R155H (p97^R155H)",IC50 (wild-type p97 (p97^WT)) [nM],"Ratio of IC50 values for mutants to IC50 values for wild-type p97, WT (wild-type p97 (p97^WT))",% ATPase activity (wild-type p97 (p97^WT); inhibitor 0.000905 µM) [%],% ATPase activity (wild-type p97 (p97^WT); inhibitor 0.002716 µM) [%],% ATPase activity (wild-type p97 (p97^WT); inhibitor 0.008148 µM) [%],% ATPase activity (wild-type p97 (p97^WT); inhibitor 0.024444 µM) [%],% ATPase activity (wild-type p97 (p97^WT); inhibitor 0.073333 µM) [%],further results
C[C@@H]1CN(C(=O)Cn2ncc(-c3cc(F)c(OCc4nnc(S[C@H]5C=CCCC5)n4-c4cccnc4)cc3F)n2)C[C@H](C)O1 [NSC819701],830,7.5,120,7.5,660,more than 30 fold,2800,175,more than 30 fold,5340,334,15,0.9,16,1,102,90,71,31,23,"% ATPase activity (wild-type p97 (p97^WT); inhibitor 0.220000 µM): 14%; increase of IC50 versus p97^WT, F618S (p97^F618S): more than 30 fold; IC50 (p97^F618S): 1510 nM; Ratio of IC50 values for mutants to IC50 values for wild-type p97, F618S (p97^F618S): 94"
CN1CCC(NC(=O)OCC#Cc2c(F)cc(OCc3nnc(S[C@H]4C=CCCC4)n3-c3cccnc3)cc2F)CC1 [NSC799462],390,3,45,3,230,61 fold,910,61,121 fold,1810,121,11,0.7,15,1,98,90,67,27,15,"cellular viability of HCT116 (HCT116 p97WT; 0.06 µM, single replicates): 105 (2×) and 108; cellular viability of HCT116 (HCT116 p97WT; 0.17 µM, single replicates): 93 (2×) and 96; cellular viability of HCT116 (HCT116 p97WT; 1.60 µM, single replicates, 1.6 µM): 4; cellular viability of HCT116 (HCT116 p97WT; 42.1 µM, single replicates): 1; viability at 0.06 µM (HCT116 p97WT; Homo sapiens, HCT-116, 0.06 µM, single replicates, read-out: cellular viability of HCT116): 100%; viability at 0.17 µM (HCT116 p97WT; Homo sapiens, HCT-116, 0.17 µM, single replicates, read-out: cellular viability of HCT116): 94%; viability at 0.52 µM (HCT116 p97WT; Homo sapiens, HCT-116, 0.52 µM, single replicates, read-out: cellular viability of HCT116): 6%; viability at 1.6 µM (HCT116 p97WT; Homo sapiens, HCT-116, 1.60 µM, single replicates, read-out: cellular viability of HCT116): 5%; viability at 4.7 µM (HCT116 p97WT; Homo sapiens, HCT-116, 4.70 µM, single replicates, read-out: cellular viability of HCT116): 5%; viability at 14 µM (HCT116 p97WT; Homo sapiens, HCT-116, 14.0 µM, single replicates, read-out: cellular viability of HCT116): 5%; viability at 42.1 µM (HCT116 p97WT; Homo sapiens, HCT-116, 42.1 µM, single replicates, read-out: cellular viability of HCT116): 2%; IC50 (HCT116 p97WT; [3]): 296 nM; IC50 (HCT116 p97P510S): 6900 nM; % ATPase activity (wild-type p97 (p97^WT); inhibitor 0.220000 µM): 16%; increase of IC50 versus p97^WT, F618S (p97^F618S): 31 fold; IC50 (p97^F618S): 460 nM; Ratio of IC50 values for mutants to IC50 values for wild-type p97, F618S (p97^F618S): 31"
CCC(=O)NCC#Cc1cc(F)c(OCc2nnc(S[C@H]3C=CCCC3)n2-c2cccnc2)cc1F [NSC804515],750,12,180,12,870,more than 30 fold,2320,155,more than 30 fold,> 6600,> 440,14,0.9,15,1,99,92,72,32,16,"% ATPase activity (wild-type p97 (p97^WT); inhibitor 0.220000 µM): 12%; increase of IC50 versus p97^WT, F618S (p97^F618S): more than 30 fold; IC50 (p97^F618S): 1750 nM"
"Cc1cc2c(C(N)=O)cccc2n1-c1nc2c(c(NCc3ccccc3)n1)COCC2 [CB-5083, 1-[4-(benzylamino)-5H,7H,8H-pyrano[3d,[4]]pyrimidin-2-yl]-2-methyl-1H-indole-4-carboxamide, reference compound]",–,–,–,–,430,–,–,–,–,–,–,–,–,–,–,–,–,–,–,–,"IC50 (HCT116 p97WT; Homo sapiens, HCT-116, read-out: IC50 HCT116 p97WT): 400 nM; IC50 (HCT116 p97WT; [3]): 344 nM; IC50 (HCT116 p97P510S): 1000 nM; IC50 (HCT116 p97F618S): 600 nM; IC50 (HCT116 p97K512N): 500 nM"

# — article PMC11316111, “Mechanism of allosteric inhibition of human p97/VCP ATPase and its disease mutant by triazole inhibitors” (Communications Chemistry, 2024)
